According to PubChem BioAssay (NCI):
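GI50 is the concentration that inhibits growth by half. TGI: concentration producing complete growth inhibition.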

Columns and labels:
Assay in all cases: NCI anticancer screen, dose series, 384-well format
786-0 renal = tested on: 786-0 renal
A498 renal = tested on: A498 renal
A549 NSCLC = tested on: A549 NSCLC
ACHN renal = tested on: ACHN renal
BT-549 breast = tested on: BT-549 breast
CAKI-1 renal = tested on: CAKI-1 renal
CCRF-CEM leukemia = tested on: CCRF-CEM leukemia
COLO 205 colon = tested on: COLO 205 colon
EKVX NSCLC = tested on: EKVX NSCLC
HCT-116 colon = tested on: HCT-116 colon
HCT-15 colon = tested on: HCT-15 colon
HL-60(TB) leukemia = tested on: HL-60(TB) leukemia
HOP-62 NSCLC = tested on: HOP-62 NSCLC
HOP-92 NSCLC = tested on: HOP-92 NSCLC
HS 578T breast = tested on: HS 578T breast
IGROV1 ovarian = tested on: IGROV1 ovarian
K-562 leukemia = tested on: K-562 leukemia
LOX IMVI melanoma = tested on: LOX IMVI melanoma
M14 melanoma = tested on: M14 melanoma
MALME-3M melanoma = tested on: MALME-3M melanoma
MCF7 breast = tested on: MCF7 breast
MDA-MB-231 breast = tested on: MDA-MB-231 breast
MDA-MB-468 breast = tested on: MDA-MB-468 breast
MOLT-4 leukemia = tested on: MOLT-4 leukemia
NCI-H226 lung = tested on: NCI-H226 lung
NCI-H23 lung = tested on: NCI-H23 lung
NCI-H322M lung = tested on: NCI-H322M lung
NCI-H460 NSCLC = tested on: NCI-H460 NSCLC
NCI-H522 lung = tested on: NCI-H522 lung
NCI/ADR-RES ovarian = tested on: NCI/ADR-RES ovarian
OVCAR-3 ovarian = tested on: OVCAR-3 ovarian
OVCAR-5 ovarian = tested on: OVCAR-5 ovarian
SF-295 CNS = tested on: SF-295 CNS
SF-539 CNS = tested on: SF-539 CNS
SK-MEL-2 melanoma = tested on: SK-MEL-2 melanoma
SK-MEL-28 melanoma = tested on: SK-MEL-28 melanoma
SK-MEL-5 melanoma = tested on: SK-MEL-5 melanoma
SN12C renal = tested on: SN12C renal
SNB-19 CNS = tested on: SNB-19 CNS
SNB-75 CNS = tested on: SNB-75 CNS
SR leukemia = tested on: SR leukemia
SW-620 colon = tested on: SW-620 colon
T-47D breast = tested on: T-47D breast
TK-10 renal = tested on: TK-10 renal
UACC-257 melanoma = tested on: UACC-257 melanoma
UACC-62 melanoma = tested on: UACC-62 melanoma
UO-31 renal = tested on: UO-31 renal

Compound: O=C(NC[C@H](O)CN1CCc2ccccc2C1)c1cc(NC2COC2)ncn1
- GI50 ([…]-0 renal): > 100 µM
- TGI (786-0 renal): > 100 µM
- GI50 (A498 renal): > 100 µM
- TGI (A498 renal): > 100 µM
- GI50 (A549 NSCLC): > 100 µM
- TGI (A549 NSCLC): > 100 µM
- GI50 (ACHN renal): > 100 µM
- TGI (ACHN renal): > 100 µM
- GI50 (BT-549 breast): > 100 µM
- TGI (BT-549 breast): > 100 µM
- GI50 (CAKI-1 renal): > 100 µM
- TGI (CAKI-1 renal): > 100 µM
- GI50 (CCRF-CEM leukemia): > 100 µM
- TGI (CCRF-CEM leukemia): > 100 µM
- GI50 (COLO 205 colon): > 100 µM
- TGI (COLO 205 colon): > 100 µM
- GI50 (EKVX NSCLC): > 100 µM
- TGI (EKVX NSCLC): > 100 µM
- GI50 (HCT-116 colon): > 100 µM
- TGI (HCT-116 colon): > 100 µM
- GI50 (HCT-15 colon): > 100 µM
- TGI (HCT-15 colon): > 100 µM
- GI50 (HL-60(TB) leukemia): > 28.3 µM
- TGI (HL-60(TB) leukemia): > 100 µM
- GI50 (HOP-62 NSCLC): > 100 µM
- TGI (HOP-62 NSCLC): > 100 µM
- GI50 (HOP-92 NSCLC): > 100 µM
- TGI (HOP-92 NSCLC): > 100 µM
- GI50 (HS 578T breast): > 100 µM
- TGI (HS 578T breast): > 100 µM
- GI50 (IGROV1 ovarian): > 100 µM
- TGI (IGROV1 ovarian): > 100 µM
- GI50 (K-562 leukemia): > 100 µM
- TGI (K-562 leukemia): > 100 µM
- GI50 (LOX IMVI melanoma): > 100 µM
- TGI (LOX IMVI melanoma): > 100 µM
- GI50 (M14 melanoma): > 100 µM
- TGI (M14 melanoma): > 100 µM
- GI50 (MALME-3M melanoma): > 100 µM
- TGI (MALME-3M melanoma): > 100 µM
- GI50 (MCF7 breast): > 41.5 µM
- TGI (MCF7 breast): > 100 µM
- GI50 (MDA-MB-231 breast): > 100 µM
- TGI (MDA-MB-231 breast): > 100 µM
- GI50 (MDA-MB-468 breast): > 100 µM
- TGI (MDA-MB-468 breast): > 100 µM
- GI50 (MOLT-4 leukemia): 0.0768 µM
- GI50 (NCI-H226 lung): > 100 µM
- TGI (NCI-H226 lung): > 100 µM
- GI50 (NCI-H23 lung): > 100 µM
- TGI (NCI-H23 lung): > 100 µM
- GI50 (NCI-H322M lung): > 100 µM
- TGI (NCI-H322M lung): > 100 µM
- GI50 (NCI-H460 NSCLC): 6 µM
- TGI (NCI-H460 NSCLC): > 100 µM
- GI50 (NCI-H522 lung): > 100 µM
- TGI (NCI-H522 lung): > 100 µM
- GI50 (NCI/ADR-RES ovarian): > 100 µM
- TGI (NCI/ADR-RES ovarian): > 100 µM
- GI50 (OVCAR-3 ovarian): > 69.1 µM
- TGI (OVCAR-3 ovarian): > 100 µM
- GI50 (OVCAR-5 ovarian): > 100 µM
- TGI (OVCAR-5 ovarian): > 100 µM
- GI50 (SF-295 CNS): > 100 µM
- TGI (SF-295 CNS): > 100 µM
- GI50 (SF-539 CNS): > 100 µM
- TGI (SF-539 CNS): > 100 µM
- GI50 (SK-MEL-2 melanoma): > 100 µM
- TGI (SK-MEL-2 melanoma): > 100 µM
- GI50 (SK-MEL-28 melanoma): > 100 µM
- TGI (SK-MEL-28 melanoma): > 100 µM
- GI50 (SK-MEL-5 melanoma): > 100 µM
- TGI (SK-MEL-5 melanoma): > 100 µM
- GI50 (SN12C renal): > 100 µM
- TGI (SN12C renal): > 100 µM
- GI50 (SNB-19 CNS): > 100 µM
- TGI (SNB-19 CNS): > 100 µM
- GI50 (SNB-75 CNS): > 100 µM
- TGI (SNB-75 CNS): > 100 µM
- GI50 (SR leukemia): 0.117 µM
- TGI (SR leukemia): 8.35 µM
- GI50 (SW-620 colon): > 100 µM
- TGI (SW-620 colon): > 100 µM
- GI50 (T-47D breast): 4.97 µM
- TGI (T-47D breast): > 100 µM
- GI50 (TK-10 renal): > 100 µM
- TGI (TK-10 renal): > 100 µM
- GI50 (UACC-257 melanoma): > 100 µM
- TGI (UACC-257 melanoma): > 100 µM
- GI50 (UACC-62 melanoma): > 100 µM
- TGI (UACC-62 melanoma): > 100 µM
- GI50 (UO-31 renal): > 100 µM
- TGI (UO-31 renal): > 100 µM

Compound: CN1CCN(c2ccc(Nc3cc(-c4cccc(-n5ccc6cc(C7CC7)cc(F)c6c5=O)c4CO)cn(C)c3=O)nc2)CC1
- GI50 ([…]-0 renal): 1.69 µM
- TGI (786-0 renal): 3.39 µM
- GI50 (A498 renal): 2.05 µM
- TGI (A498 renal): 3.96 µM
- GI50 (A549 NSCLC): 3.1 µM
- TGI (A549 NSCLC): 10.5 µM
- GI50 (ACHN renal): 1.6 µM
- TGI (ACHN renal): 3.01 µM
- GI50 (BT-549 breast): 2.24 µM
- TGI (BT-549 breast): 5.29 µM
- GI50 (CAKI-1 renal): 2.18 µM
- TGI (CAKI-1 renal): 5.6 µM
- GI50 (CCRF-CEM leukemia): 1.78 µM
- TGI (CCRF-CEM leukemia): 3.18 µM
- GI50 (COLO 205 colon): 2.02 µM
- TGI (COLO 205 colon): 3.69 µM
- GI50 (EKVX NSCLC): 2.03 µM
- TGI (EKVX NSCLC): 4.57 µM
- GI50 (HCT-116 colon): 1.71 µM
- TGI (HCT-116 colon): 3.26 µM
- GI50 (HCT-15 colon): 2.45 µM
- TGI (HCT-15 colon): 7.4 µM
- GI50 (HL-60(TB) leukemia): 1.84 µM
- TGI (HL-60(TB) leukemia): 3.25 µM
- GI50 (HOP-62 NSCLC): 2.77 µM
- TGI (HOP-62 NSCLC): 7.57 µM
- GI50 (HOP-92 NSCLC): 2.11 µM
- TGI (HOP-92 NSCLC): 4.78 µM
- GI50 (HS 578T breast): 1.82 µM
- TGI (HS 578T breast): 3.48 µM
- GI50 (IGROV1 ovarian): 2.89 µM
- TGI (IGROV1 ovarian): 9.19 µM
- GI50 (K-562 leukemia): 1.77 µM
- TGI (K-562 leukemia): 3.33 µM
- GI50 (LOX IMVI melanoma): 2.04 µM
- TGI (LOX IMVI melanoma): 3.52 µM
- GI50 (M14 melanoma): 2.01 µM
- TGI (M14 melanoma): 3.54 µM
- GI50 (MALME-3M melanoma): 1.86 µM
- TGI (MALME-3M melanoma): 3.27 µM
- GI50 (MCF7 breast): 1.79 µM
- TGI (MCF7 breast): 4.37 µM
- GI50 (MDA-MB-231 breast): 1.95 µM
- TGI (MDA-MB-231 breast): 3.92 µM
- GI50 (MDA-MB-468 breast): 1.7 µM
- TGI (MDA-MB-468 breast): 3.16 µM
- GI50 (MOLT-4 leukemia): 1.51 µM
- TGI (MOLT-4 leukemia): 2.85 µM
- GI50 (NCI-H226 lung): 1.99 µM
- TGI (NCI-H226 lung): 4.03 µM
- GI50 (NCI-H23 lung): 2.73 µM
- TGI (NCI-H23 lung): 8.14 µM
- GI50 (NCI-H322M lung): 3.91 µM
- TGI (NCI-H322M lung): 9.99 µM
- GI50 (NCI-H460 NSCLC): 2.06 µM
- TGI (NCI-H460 NSCLC): 4.14 µM
- GI50 (NCI-H522 lung): 2.05 µM
- TGI (NCI-H522 lung): 4.02 µM
- GI50 (NCI/ADR-RES ovarian): 2.51 µM
- TGI (NCI/ADR-RES ovarian): 5.66 µM
- GI50 (OVCAR-3 ovarian): 1.79 µM
- TGI (OVCAR-3 ovarian): 3.28 µM
- GI50 (OVCAR-5 ovarian): 1.94 µM
- TGI (OVCAR-5 ovarian): 3.97 µM
- GI50 (SF-295 CNS): 2.21 µM
- TGI (SF-295 CNS): 4.93 µM
- GI50 (SF-539 CNS): 1.71 µM
- TGI (SF-539 CNS): 3.14 µM
- GI50 (SK-MEL-2 melanoma): 1.8 µM
- TGI (SK-MEL-2 melanoma): 3.34 µM
- GI50 (SK-MEL-28 melanoma): 1.71 µM
- TGI (SK-MEL-28 melanoma): 3.11 µM
- GI50 (SK-MEL-5 melanoma): 1.62 µM
- TGI (SK-MEL-5 melanoma): 3.02 µM
- GI50 (SN12C renal): 1.76 µM
- TGI (SN12C renal): 3.63 µM
- GI50 (SNB-19 CNS): 3.96 µM
- TGI (SNB-19 CNS): 13.5 µM
- GI50 (SNB-75 CNS): 1.73 µM
- TGI (SNB-75 CNS): 3.44 µM
- GI50 (SR leukemia): 1.58 µM
- TGI (SR leukemia): 2.94 µM
- GI50 (SW-620 colon): 2.61 µM
- TGI (SW-620 colon): 6.97 µM
- GI50 (T-47D breast): 1.75 µM
- TGI (T-47D breast): 3.71 µM
- GI50 (TK-10 renal): 2.32 µM
- TGI (TK-10 renal): 5.77 µM
- GI50 (UACC-257 melanoma): 1.74 µM
- TGI (UACC-257 melanoma): 3.13 µM
- GI50 (UACC-62 melanoma): 1.74 µM
- TGI (UACC-62 melanoma): 3.16 µM
- GI50 (UO-31 renal): 1.77 µM
- TGI (UO-31 renal): 3.19 µM
